Source: PMC8148468, “Shikimic acid protects skin cells from UV-induced senescence through activation of the NAD+-dependent deacetylase SIRT1” (Aging (Albany NY), 2021)

System: HDF cells
Assay: Cell cycle analysis, PI staining flow cytometry
Format: cell-based, human
Experimental: Figure 4 (A) SRB and Trypan blue cell viability assays performed in cells treated with or without Shikimic acid (5, 10, 25 and 50 mM) for 24h. (B) Apoptosis detection using the Annexin V-FITC/PI double staining followed by flow cytometry in non-irradiated and non-treated cells, irradiated and non-treated cells and irradiated cells treated with Shikimic acid (10, 25 and 50 mM). (C) Representation and statistical analysis of the percentage of apoptotic cells in each of the conditions analyzed. (D) Cell cycle analysis using PI staining followed by flow cytometry. (E) Relative p16^INK4a mRNA levels monitored by qPCR in the indicated conditions. Student T-test, *p<0.05. (F) Immunofluorescence of γH2AX in non-irradiated and non-treated cells, irradiated and non-treated cells and irradiated cells treated with Shikimic acid (10, 25 and 50 mM). (G) Principal component analysis (PCA) on Savitzky–Golay second derivatized spectra in the fingerprint region (1800–950 cm−1) for non-irradiated cells (No UVB), irradiated non-treated cells (UVB), irradiated cells treated with Shikimic acid 25 mM (UVB SA) and irradiated cells treated with Shikimic acid 25 mM plus EX-527 1 μM (UVB SA+EX-527). Student T-test, *p<0.05, **p<0.01, ***p<0.001. (H) Beta-sheet to alpha-helix ratio obtained by curve-fitting analysis of the amide I band (1700-1600 cm-1).
Fluorescence-activated cell sorting (FACS) analyses of the cell cycle and apoptosis were carried out using, respectively, a Propidium Iodide Flow Cytometry Kit (Abcam, UK), and an Annexin V-FITC Apoptosis Staining/Detection Kit (Abcam, UK), following the manufacturer’s instructions.
Senescence induction by UVB irradiation For the non-irradiation control conditions, HDF were plated at a density of 6×10^4 cells/plate in 6-well
HDF were plated at a density of 6×10^4 cells/plate in 6- plates. After 24h, culture medium was removed and well plates. After 24h, culture medium was removed replaced by fresh cell culture medium containing the and replaced with fresh cell culture medium containing compounds at different concentrations. […]

## O=C(O)C1=C[C@@H](O)[C@@H](O)[C@H](O)C1 [Shikimic acid]
UVB irradiation
  frequency of polyploidies: did not alter the accumulation of DNA damage or the frequency of polyploidies
UVB-irradiated HDF
  cells in S-phase: progressive increase in the number of cells in S-phase
Absence of UVB irradiation
  cell cycle: did not alter the cell cycle
